Measurements from patent publication US20230134922A1, “TOPICAL DELIVERY OF BUFFERING AGENTS FOR PREVENTION AND TREATMENT OF VIRAL INFECTIONS” (Dyve Biosciences, Inc., priority 2020, published 2023).

Experiments:
MCF-7 cells = test: Doxorubicin uptake and cytotoxicity at medium pH 6.8 or 7.4; type: cell-based; settings: raising the pHe from 6.8 to 7.4
Protocol: Twenty-four hours later, regular growth medium was replaced, and cells allowed to grow a subsequent 72 h, after which time they were fixed and stained with crystal violet for determination of cell number.

MCF-7 tumors = test: MCF-7 tumor growth in SCID mice, doxorubicin with oral or topical bicarbonate; type: in vivo
Protocol: The start of the bicarbonate treatment was designated as day 1.
Tumor volumes and animal weights were monitored every 2 days. […] Other characteristics of tumors that increase its potential for carcinogenesis other than growth rates are measured by other parameters as well, including inhibition metastasis.

## doxorubicin
MCF-7 cells
  enhancement of cytotoxicity: 2.25 fold
  increase in intracellular doxorubicin concentrations: 2.56 fold
MCF-7 tumors; Group B, 1.6 mg/kg i.p. days 3, 7, 11, doxorubicin alone
  decrease of tumor growth rate: ~30%
MCF-7 tumors; Group D, doxorubicin i.p. with 200 mM sodium bicarbonate drinking water
  reduction in tumor growth rate: 55%
MCF-7 tumors; Group F, doxorubicin i.p. with topical bicarbonate formulation 150 μL/day
  reduction in tumor growth rate: significantly lowered tumor growth rate
MCF-7 tumors; Group F, doxorubicin i.p. with topical bicarbonate formulation 150 μL/day, listed as Doxorubicin
  reduction in tumor growth rate: 55%
